Data published in patent publication US11191773B2, “Methods of treatment for bacterial infections” (President and Fellows of Harvard College, priority 2017, dated 2021).

How the values were obtained:
IptFG(ch) mutant = experiment: Rescue of growth of coupling helix mutant (plating and disk assays); format: cell-based, E. coli
Method: FIG. 8B is a series of pictures of bacterial overnight cultures grown in minimal medium. The cultures were serially diluted ten-fold and spotted onto LB agar plates with and without compounds.
FIG. 15 is a picture of bacterial lawns grown on plates in the presence of disks containing antibiotics. […] Strains were grown overnight in minimal media and then plated on LB plates. Each disk contained 5 μg compound.
The coupling helices in LptFG each contain a strictly-conserved glutamate, and changing both glutamates to alanine (IptFG(ch)) causes a lethal loss of function (FIG. 8B, LB panel). […] Because novobiocin also contacts R91 (FIG. 7C), we speculated that it might rescue growth of IptFG(ch) by masking the charge. […] We conclude that novobiocin suppresses Lpt defects in vivo by interacting with LptB at R91; therefore, novobiocin interacts with LptB in cells in a similar manner to that observed in the crystal structure.
Disk diffusion assays were performed as described in Sherman et al., Proc. Natl. Acad. Sci. USA 2014, 111, 4982-4987. Premade Sensi-Disc (BD-Beckton, Dickinson and Company) were used for bacitracin 10IU, erythromycin 15 μg, novobiocin 30 μg, and rifampin 5 μg.
Efficiency of plating assays were performed on indicated media using the method described in Butler et al., J. Bacteriol. 2013, 195, 4639-4649.

[1] = system: K. pneumoniae, A. baumannii, P. aeruginosa, E. coli; experiment: Log(CFU/mL) vs. time curves (FIG. 3); format: cell-based; conditions: Novobiocin 50-130 μg/mL, Polymyxin B 1.4-2.0 μg/mL
Method: FIGS. 3A-3D are a set of plots of colony forming units/ml (CFU/ml) over time when untreated, or treated with polymyxin B, novobiocin, or a combination of both. FIG. 3A is a growth curve of Klebsiella pneumoniae. FIG. 3B is a growth curve of Acinetobacter baumannii Novo^R. FIG. 3C is a plot of CFU/ml over time of Pseudomonas aeruginosa. FIG. 3D is a growth curve of Escherichia coli.
Log(CFU/mL) vs. time curves. Overnight cultures were diluted 1:100 and grown at 37° C., 220 rpm until OD600=0.1. This culture was transferred to four sterile 5 mL tubes and treated with polymyxin B, novobiocin, polymyxin B+novobiocin, or no drug and incubated at 37° C., 220 rpm. At each timepoint, 10 μL from each condition was log10 diluted to 10^−7 and subsequently plated on LB Miller agar containing no antibiotic. Time=0 h represents the CFU/mL count immediately after the initial treatment. Y-values of zero indicate fewer than 10,000 CFUs (limit of detection). Strains are identical to those used in FIG. 1. K. pneumoniae: [Novobiocin]=130 μg/mL, [Polymyxin B]=1.4 μg/mL; A. baumannii: [Novobiocin]=100 μg/mL, [Polymyxin B]=2.0 μg/mL; P. aeruginosa: [Novobiocin]=100 μg/mL, [Polymyxin B]=2.0 μg/mL; E. coli: [Novobiocin]=50 μg/mL, [Polymyxin B]=2.0 μg/mL.

CO[C@@H]1[C@@H](OC(N)=O)[C@@H](O)[C@H](Oc2ccc3c(O)c(NC(=O)c4ccc(O)c(CC=C(C)C)c4)c(=O)oc3c2C)OC1(C)C [Novobiocin, novobiocin]
suppression of lethality of IptFG(ch) (IptFG(ch) mutant; disks on LB plates, each disk 5 μg compound (FIG. 15)): suppressed the lethality of IptFG(ch) | rescue of growth of IptFG(ch) (IptFG(ch) mutant; serial dilutions spotted onto LB agar plates with compound (FIG. 8B)): enables the IptFG(ch) mutant to grow | killing by combination with polymyxin B, CFU/mL over time [1]: synergy is bactericidal
